Experiment: Stability of the amorphous form, confirmed by PXRD, DSC and TGA
Type: physicochemical
Conditions: solid amorphous form
Source text: According to the present invention, the obtained amorphous form of Ceritinib is stable up to 180 days. The stability of the amorphous form is confirmed by PXRD, DSC and TGA.
FIG. 2: Powder X-ray diffractogram of an amorphous form of ceritinib of 180 days

With `Cc1cc(Nc2ncc(Cl)c(Nc3ccccc3S(=O)(=O)C(C)C)n2)c(OC(C)C)cc1C1CCNCC1` [amorphous form of Ceritinib] the “stability towards polymorphic conversion” value was “stable towards polymorphic conversion” and the “stability of the amorphous form (time for which it is stable)” value (confirmed by PXRD, DSC and TGA, storage conditions not given) was “up to 180 days”.

Source: US20190047983A1, “MODIFIED PROCESS FOR THE PREPARATION OF CERITINIB AND AMORPHOUS FORM OF CERITINIB” (NATCO PHARMA LIMITED, priority 2016, published 2019)
